Assays:
[1] = test system: male Lewis rats, adjuvant induced arthritis; assay: AIA model of inflammation (paw swelling); assay type: in vivo; conditions: rat AIA; all 3 doses tested (1, 3, and 10 mg/kg) oral once daily 4 days; P < 0.05 by Dunnett's test
Procedure: (§1) For the monoiodoacetate (MIA) and adjuvant induced arthritis (AIA) studies, male Lewis rats (Envigo, Indianapolis, IN) of approximately 8 weeks of age at the time of disease induction were used. For collagen induced arthritis studies (CIA) female Lewis rats (Charles River) weighing 150–170 g were used. Rats were housed in groups of 2 or 3 per cage and maintained in a constant temperature, and on a 12 h light/12 h dark cycle. Animals had free access to food and water at all times except during data collection.
On Day 0, paw widths of both right and left paws were measured between the lateral and dorsal surfaces using calipers, and a mean paw thickness for each rat was calculated by averaging these measurements. Rats were then inoculated intradermally with 0.25 mg of adjuvant (M. Tuberculosis H37 RA from Difco) in 100 μL of mineral oil at the base of the tail to induce adjuvant disease. Eleven days post inoculation paw widths of both right and left paws were measured again, and the percent change from the Day 0 reading was calculated. […] On the fifth day after dosing started (day 15 post adjuvant injection) the rats were euthanized without further dosing and paw width measured again. The percent increase in mean paw thickness from day 11 to day 15 was then calculated as a measure of paw swelling which is indicative of the amount of inflammation in the paws measured. […]

COXl (h) = biological target: T1, COXl (h) (Homo sapiens, UniProt P23219); assay: Off-target activity (CEREP), COX1; assay type: biochemical; conditions: 10 μmol/L; obtained at CEREP (Blanco et al. 2016c); Compound 1 value footnoted: non-specific assay interference
T1 construct: CEREP (contract laboratory that ran the assay)
Text: The off‐target activity related to prostaglandin pathway (Table 2) were obtained at CEREP (Blanco et al. 2016c).

[2] = test system: male Lewis rats, MIA injected knee; parameters: method as in Blanco et al. 2016b; conditions: results published previously, ref Blanco et al. 2016b; cited from earlier work
[3] = test system: male Lewis rats, adjuvant induced arthritis; parameters: method as in Blanco et al. 2016b; conditions: results published previously, ref Blanco et al. 2016b; cited from earlier work
[4] = test system: female Lewis rats, collagen induced arthritis; assay: Type-II CIA model of inflammation and autoimmunity; assay type: in vivo; conditions: rat CIA
Procedure: as §1
On day 1 of the study ankle widths are measured across the joint (left side to right side) at the thickest point with calipers and rats immunized intradermally near the base of the tail with 0.4 mL of 1 mg/mL type II collagen (Elastin Products) emulsified with incomplete Freund's adjuvant (Sigma Aldrich). A second booster injection booster of 0.4 mL of the collagen emulsion was given on day 8 of the study. Ankle widths were measured on day 8 before the collagen injection and every 2–3 days thereafter until study end. On day 11 rats were randomized into five groups of eight animals based on inflammation (redness and/or swelling) in their hind paws and body weight. Rats were then dosed with vehicle (10% Acacia plus 0.05% antifoam) and compound 3 at doses of 3, 10, and 30 mg/kg. Prednisolone was included at a dose of 10 mg/kg as a positive control. Dosing was by oral gavage once daily for seventeen days at a dose volume of 5 mL/kg. On day 28 rats were euthanized and hind paws and knee joints collected for histology. Ankles and knees were fixed in neutral buffered formalin, decalcified, embedded in paraffin, and sectioned according to standard histological methodology and the joints were then scored by a pathologist using published scoring criteria (Bendele 2001; Levine et al. 2014).

T1 sequence (P23219 24-599): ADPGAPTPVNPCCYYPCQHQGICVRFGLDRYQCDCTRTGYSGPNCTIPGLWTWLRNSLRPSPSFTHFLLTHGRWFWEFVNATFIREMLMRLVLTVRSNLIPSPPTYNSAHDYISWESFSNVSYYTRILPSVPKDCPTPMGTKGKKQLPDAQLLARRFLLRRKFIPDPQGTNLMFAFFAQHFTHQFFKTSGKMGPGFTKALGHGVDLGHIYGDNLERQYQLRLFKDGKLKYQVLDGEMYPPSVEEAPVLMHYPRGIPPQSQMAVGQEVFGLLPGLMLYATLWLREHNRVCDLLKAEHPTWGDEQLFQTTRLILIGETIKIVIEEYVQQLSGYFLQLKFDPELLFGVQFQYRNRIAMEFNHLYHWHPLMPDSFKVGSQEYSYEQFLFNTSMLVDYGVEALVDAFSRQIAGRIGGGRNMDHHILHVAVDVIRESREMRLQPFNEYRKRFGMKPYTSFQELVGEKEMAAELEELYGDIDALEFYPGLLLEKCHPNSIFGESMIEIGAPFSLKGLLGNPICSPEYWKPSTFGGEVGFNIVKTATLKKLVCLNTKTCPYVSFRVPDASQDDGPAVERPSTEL

**Q.** With `C[C@H](NC(=O)[C@H]1CCCCN1CCOc1ccccc1)c1ccc(C(=O)O)cc1` [Compound 2] as the compound, how does the “increases in paw inflammation (swelling) compared to vehicle” value [1] read?
**A.** significantly inhibited

**Q.** What about the inhibition at 10 µM (COXl (h)) of the same compound?
**A.** -24%

**Q.** With `Cc1ccc(N2CCC(O)CC2)nc1C(=O)Nc1c(C)cc(C(=O)O)cc1C` [Compound 1] as the compound, how does the “efficacy in rat MIA model of pain” value [2] read?
**A.** effective

**Q.** What about the “efficacy in rat AIA model of inflammation” value [3] of the same compound?
**A.** effective

**Q.** For `Cc1ccc(-c2cccc(CO)c2)nc1C(=O)Nc1c(C)ccc(C(=O)O)c1C` [Compound 3], which “ankle histology, nearly all parameters and summed scores” value ([4]; 10 and 30 mg/kg oral once daily for seventeen days) is on record?
**A.** significant reductions

**Q.** What about the “knee joint histopathology (representative photomicrograph)” value ([4]; Fig. 10 bottom panel, prednisolone 10 mg/kg, compound 3 dose not given) of the same compound?
**A.** minimal inflammation (S) and cartilage damage (large arrow), very minimal pannus (small arrow) and bone formation (P) not visible at this magnification

**Q.** What about the “ankle joint histopathology (representative photomicrograph)” value ([4]; Fig. 10 top panel, prednisolone 10 mg/kg, compound 3 dose not given) of the same compound?
**A.** moderate inflammation (S) and cartilage damage (large arrow), mild pannus (small arrow) and mild periosteal bone formation

**Q.** And the ankle thickness ([4]; all three doses (3, 10, and 30 mg/kg) oral once daily, data not shown)?
**A.** significant reduction

From PMC5464344, “Analgesic and anti‐inflammatory properties of novel, selective, and potent EP4 receptor antagonists” (Pharmacology Research & Perspectives, 2017)
